Measured values as given in paper PMC7356228, “Alvaxanthone, a Thymidylate Synthase Inhibitor with Nematocidal and Tumoricidal Activities” (Molecules, 2020).
Like-named read-outs stand apart in the source and are kept apart here.

Assays:
[1] = test system: BJ, U-118 MG and SCC-15 cells; experiment: NR assay, summary over the three cell lines; assay type: cell-based, human; conditions: 48 h, span over BJ
Protocol: (§1) Biological effect of alvaxanthone and rheediaxanthone B on normal (BJ) and cancer cells (U-118 MG and SCC-15) was estimated using two viability assays, the neutral red uptake (NR) and tetrazolium salts reduction (XTT) assays.
(§2) Thus, alvaxanthone may be damaging mitochondria and impairing their metabolism exerting one of possible mechanisms active in destroying cancer cells. Changes of cell morphology in dependence on increasing alvaxanthone and rheediaxanthone B concentration were also recorded. While the glioma and squamous carcinoma cells formed clusters, lost their adhesion, shrank, and accumulated less NR dye, normal fibroblasts preserved rather normal shapes but the amount of the neutral red dye and confluence of cells decreased. In addition, a lower number of BJ cells was detected (Figure 1B).
(§3) Influence of selected compounds on cells was tested by performing the cytotoxicity (NR and XTT) assays, proliferation assay, cell adhesion assay, cell migration assay, determination of intracellular ATP level, and apoptosis assay as previously reported.

[2] = target: TsTS (Trichinella spiralis, UniProt Q9NDD3); experiment: Inhibition of TS-catalyzed reaction (tritium release from [5-3H]dUMP); assay type: biochemical, T. spiralis; conditions: for remaining activity at 10 µM: compound 10 µM; for remaining activity at 10 µM / remaining activity at 100 µM: 20 µM dUMP; for remaining activity at 100 µM: compound 100 µM
TsTS, sequence (Q9NDD3 entry or part of it): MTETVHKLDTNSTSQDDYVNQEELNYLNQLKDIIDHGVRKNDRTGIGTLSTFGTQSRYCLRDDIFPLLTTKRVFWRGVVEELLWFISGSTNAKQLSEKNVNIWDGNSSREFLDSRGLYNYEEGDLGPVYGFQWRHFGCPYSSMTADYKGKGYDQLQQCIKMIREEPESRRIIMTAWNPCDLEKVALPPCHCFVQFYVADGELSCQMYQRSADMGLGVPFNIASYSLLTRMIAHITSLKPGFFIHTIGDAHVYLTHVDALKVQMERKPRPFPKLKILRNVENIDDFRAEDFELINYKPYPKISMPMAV
Excerpt: (§4) The recombinant human, rat, mouse, T. spiralis and C. elegans TS proteins were produced, purified and separated into phosphorylated and non-phosphorylated fraction, as previously described. TS activity was monitored, following tritium release from [5-^3H]dUMP, and its inhibition studied as earlier reported.

[3] = target: T1, hTS (Homo sapiens, UniProt P04818); experiment: as above; assay type: biochemical
T1 construct: made in house
T1 sequence (P04818 whole entry): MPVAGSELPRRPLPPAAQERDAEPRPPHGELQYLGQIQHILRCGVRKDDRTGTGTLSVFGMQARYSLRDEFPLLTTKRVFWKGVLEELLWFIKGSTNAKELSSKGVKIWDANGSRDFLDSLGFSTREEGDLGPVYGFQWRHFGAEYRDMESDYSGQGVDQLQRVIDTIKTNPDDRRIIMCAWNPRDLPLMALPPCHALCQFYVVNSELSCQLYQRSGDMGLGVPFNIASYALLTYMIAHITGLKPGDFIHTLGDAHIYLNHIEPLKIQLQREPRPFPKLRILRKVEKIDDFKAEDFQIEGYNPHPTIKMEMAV
Excerpt: as §4

[4] = target: T2, mTS (Mus musculus, UniProt P07607); experiment: as above; assay type: biochemical; conditions: 20 µM dUMP, 250 µM meTHF
T2 construct: made in house
T2 sequence (P07607 whole entry): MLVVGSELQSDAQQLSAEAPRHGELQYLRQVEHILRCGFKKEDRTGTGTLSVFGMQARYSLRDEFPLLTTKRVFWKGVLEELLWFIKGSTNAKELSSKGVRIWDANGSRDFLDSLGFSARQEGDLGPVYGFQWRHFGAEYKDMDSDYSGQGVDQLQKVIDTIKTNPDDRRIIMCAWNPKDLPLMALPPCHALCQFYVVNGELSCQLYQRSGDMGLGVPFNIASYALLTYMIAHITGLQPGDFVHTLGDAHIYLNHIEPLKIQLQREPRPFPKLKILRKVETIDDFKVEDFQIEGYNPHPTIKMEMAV
Excerpt: as §4

[5] = test system: C. elegans; experiment: Toxicity to C. elegans (population growth); conditions: Caenorhabditis elegans, read-out: LC50 (reduction of growth of the nematode population)
Protocol: C. elegans was maintained as previously described. The effect of the compounds studied on C. elegans population growth was determined as earlier presented.

[6] = test system: U-118 MG human glioblastoma cells; experiment: Cytotoxicity, neutral red uptake (NR) assay; assay type: cell-based; conditions: U-118 MG
Protocol: as §1
(§5) Human glioblastoma cells U-118 MG (ATCC® HTB-15), human squamous carcinoma cells SCC-15 (ATCC® CRL-1623), and normal human skin fibroblasts (ATCC® CRL-2522) were grown, their morphology checked, and number and viability estimated as earlier presented.
as §3

[7] = test system: SCC-15 human squamous carcinoma cells; experiment: Cytotoxicity, neutral red uptake (NR) assay; assay type: cell-based; conditions: for IC50: read-out: IC50
Protocol: as §1, §5, §3

[8] = test system: U-118 MG cells; experiment: Intracellular ATP level (CellTiterGlo); assay type: cell-based, human; conditions: 48-h incubation, glioma cells
Protocol: (§6) Figure 4 Changes of caspase-3/7 activities and intracellular ATP level in BJ, U-118 MG, and SCC-15 cells after 48-h incubation with 5–40 µM alvaxanthone or rheediaxanthone B. Median results are presented of three independent experiments, each performed in triplicate. The whiskers are lower (25%) and upper (75%) quartile ranges.
(§7) On the other hand, rheediaxanthone B caused a reduction of ATP level down to around 30% in glioma cells and fibroblasts, and to 20% in squamous carcinoma cells (Figure 4). In general, with increasing Caspase-3/7 activity the ATP level was decreasing, in accord with the results of Reference.
as §3

[9] = test system: BJ cells; experiment: Intracellular ATP level (CellTiterGlo); assay type: cell-based, human; conditions: 48-h incubation, normal fibroblasts
Protocol: as §6, §7, §3

[10] = test system: SCC-15 cells; experiment: Intracellular ATP level (CellTiterGlo); assay type: cell-based, human; conditions: 48-h incubation, SCC-15
Protocol: as §6, §7, §3

[11] = target: T3, CeTS (Caenorhabditis elegans, UniProt Q9Y052); experiment: Inhibition of TS-catalyzed reaction (tritium release from [5-3H]dUMP); assay type: biochemical, C. elegans; conditions: 20 µM dUMP, 250 µM meTHF
T3 sequence (Q9Y052 1-315): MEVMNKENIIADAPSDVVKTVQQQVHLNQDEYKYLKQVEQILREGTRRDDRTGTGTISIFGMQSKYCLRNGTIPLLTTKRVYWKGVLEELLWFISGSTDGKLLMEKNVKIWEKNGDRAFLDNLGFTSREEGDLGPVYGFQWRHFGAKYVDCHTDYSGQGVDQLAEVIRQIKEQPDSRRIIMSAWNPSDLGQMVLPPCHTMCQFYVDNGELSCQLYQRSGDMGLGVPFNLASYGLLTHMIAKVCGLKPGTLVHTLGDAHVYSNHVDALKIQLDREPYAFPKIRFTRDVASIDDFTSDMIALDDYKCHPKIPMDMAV
Excerpt: as §4

[12] = test system: U-118 MG cells; experiment: Proliferation (CyQUANT GR, total cellular DNA content); assay type: cell-based, human; conditions: 40 μM, 72 h, BJ vs U-118 MG
Protocol: (§8) The influence of alvaxanthone and rheediaxanthone B on cell proliferation (Figure 2) was assessed by quantitative measurement of the total cellular DNA content, proportional to the cell number.
(§9) Figure 2 Proliferation of cancer (U-118 MG and SCC-15) and normal (BJ) cells after 72 h incubation with 5–40 μM alvaxanthone or 1.25–40 μM rheediaxanthone B, determined with the CyQUANT GR Cell Proliferation Assay Kit. Median results are presented of three independent experiments, each performed in triplicate. The whiskers are lower (25%) and upper (75%) quartile ranges. […] Images collected with Olympus IX-83 microscope with contrast phase (scale bar = 100 µm).
as §3

[13] = test system: SCC-15 cells; experiment: as above; assay type: cell-based, human; conditions: 40 μM, 72 h, BJ vs SCC-15
Protocol: as §8, §9, §3

[14] = test system: U-118 MG cells; experiment: Tetrazolium salts reduction (XTT) assay; assay type: cell-based, human; conditions: U-118 MG vs BJ, 48 h
Protocol: as §1, §2, §3

[15] = test system: SCC-15 cells; experiment: Tetrazolium salts reduction (XTT) assay; assay type: cell-based, human
Protocol: as §1, §2, §3

[16] = test system: thymidylate synthase (TS); experiment: Time dependence of TS inhibition (initial results); assay type: biochemical; conditions: suggesting slow-binding character
Excerpt: as §4

[17] = compound 100 µM, read-out: % Remaining Activity

## C=CC(C)(C)c1c(O)cc2oc3c(O)c(O)cc(CC=C(C)C)c3c(=O)c2c1O [Alvaxanthone (15), Alvaxanthone]
[1]; Homo sapiens
  IC50: > 15 µM
[1]
  IC50: < 18 µM
[2]; IC50, 20 µM dUMP and 50 µM meTHF, mean ± S.E.M. (N=3) for alvaxanthone, rheediaxanthone B not repeated
  IC50: 41.9 ± 8.1 µM
[2]; 50 µM meTHF
  remaining activity at 10 µM: 97%
  remaining activity at 100 µM: 14%
[2]; 250 µM meTHF
  remaining activity at 10 µM: 98%
  remaining activity at 100 µM: 47%
[3]; 20 µM dUMP and 50 µM meTHF, mean ± S.E.M. (N=3) for alvaxanthone, rheediaxanthone B not repeated, read-out: IC50
  IC50: 6.3 ± 1.6 µM
[3]; 20 µM dUMP, 250 µM meTHF, read-out: IC50 Assessment
  IC50: < 10 µM
[3]; compound 10 µM, 20 µM dUMP, 250 µM meTHF
  remaining activity at 10 µM: 39%
[4]; compound 10 µM
  remaining activity at 10 µM: 79%
[4]; [17]
  remaining activity at 100 µM: 40%
[5]
  LC50: 4.6 ± 0.57 µM
[6]; NR assay, 40 µM, 48 h
  viability at 40 µM: 10%
[6]; neutral red assay, read-out: IC50
  IC50: 13.1 µM
[7]; Homo sapiens, NR assay, 40 µM, 48 h
  viability at 40 µM: 1.5%
[7]; Homo sapiens, SCC-15, neutral red assay
  IC50: 17 µM
[7]; neutral red assay
  IC50: 17.7 µM
[8]
  change of ATP level: unaltered
[9]
  change of ATP level: slight decrease
[10]
  change of ATP level: dramatically reduced
[11]; compound 10 µM
  remaining activity at 10 µM: 85%
[11]; [17]
  remaining activity at 100 µM: 18%
[12]
  proliferation inhibition weaker with normal (BJ) than cancer cells: 2.3 fold
[13]
  proliferation inhibition weaker with normal (BJ) than cancer cells: 5.8 fold
[14]
  selectivity: more sensitive compared to BJ fibroblasts: 2.7 fold
[15]; Homo sapiens, SCC-15
  IC50: 17 µM
[15]; SCC-15 vs BJ, 48 h
  selectivity: more sensitive compared to BJ fibroblasts: 5.3 fold
[16]
  character of inhibition: time-dependent inhibition
